# Results taken from article PMC6009903, “Synthesis, biological activity and multiscale molecular modeling studies for coumaryl-carboxamide derivatives as selective carbonic anhydrase IX inhibitors” (Journal of Enzyme Inhibition and Medicinal Chemistry, 2017).
# Assays:
# [1] = target: hCA IX (Homo sapiens, UniProt Q16790); assay: CA inhibition assay, stopped-flow CO2 hydration
# Excerpt: (§1) An SX.18 MV-R Applied Photophysics (Oxford, UK) stopped-flow instrument has been used to assay the catalytic/inhibition of various CA isozymes[51]. […] The inhibition constants were obtained by non-linear least-squares methods using the Cheng–Prusoff equation, as reported earlier[39] and represent the mean from at least three different determinations. All CA isozymes used here were recombinant proteins obtained as reported earlier by our group[27]^,[32]^,[40]^,[52].
# [2] = target: hCA I (Homo sapiens, UniProt P00915); assay: CA inhibition assay, stopped-flow CO2 hydration
# Excerpt: as §1
# [3] = target: hCA II (Homo sapiens, UniProt P00918); assay: CA inhibition assay, stopped-flow CO2 hydration
# Excerpt: as §1
# [4] = target: hCA VII (Homo sapiens, UniProt P43166); assay: CA inhibition assay, stopped-flow CO2 hydration
# Chain of hCA VII (P43166 whole entry): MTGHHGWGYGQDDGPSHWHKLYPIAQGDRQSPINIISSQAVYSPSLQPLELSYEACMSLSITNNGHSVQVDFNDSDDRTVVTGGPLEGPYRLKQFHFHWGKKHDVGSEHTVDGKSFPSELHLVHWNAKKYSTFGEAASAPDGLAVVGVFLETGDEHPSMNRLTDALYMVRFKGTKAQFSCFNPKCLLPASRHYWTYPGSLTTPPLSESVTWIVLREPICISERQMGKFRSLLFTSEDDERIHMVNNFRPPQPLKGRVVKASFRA
# Excerpt: as §1
# Chain of hCA I (P00915 whole entry): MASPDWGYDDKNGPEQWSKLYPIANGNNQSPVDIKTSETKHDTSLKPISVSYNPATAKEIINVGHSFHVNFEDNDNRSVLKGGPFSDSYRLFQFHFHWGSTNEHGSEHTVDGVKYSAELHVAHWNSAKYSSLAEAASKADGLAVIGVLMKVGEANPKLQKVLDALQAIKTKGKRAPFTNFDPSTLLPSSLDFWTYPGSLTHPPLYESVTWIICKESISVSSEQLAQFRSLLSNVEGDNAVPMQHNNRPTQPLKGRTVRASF
SMILES,Ki [1] [µM],melting point [°C],Ki [2] [µM],Ki [3] [µM],Ki [4] [µM]
"O=C(NC(=S)NCCN1CCCC1)c1cc2ccccc2oc1=O [e11, 2-oxo-N-((2-(pyrrolidin-1-yl)ethyl)carbamothioyl)-2H-chromene-3-carboxamide]",0.108,131 to 132,> 10,> 10,> 10
"O=C(NC(=S)NCCN1CCOCC1)c1cc2ccccc2oc1=O [e12, N-((2-morpholinoethyl)carbamothioyl)-2-oxo-2H-chromene-3-carboxamide]",0.224,136 to 138,> 10,> 10,> 10
"COc1ccc(CCNC(=S)NC(=O)c2cc3ccccc3oc2=O)cc1OC [e14, N-((3,4-dimethoxyphenethyl)carbamothioyl)-2-oxo-2H-chromene-3-carboxamide]",0.196,148 to 149,> 10,> 10,> 10
"O=C(NC(=S)NC1CCCCC1)c1cc2ccccc2oc1=O [e5, N-(cyclohexylcarbamothioyl)-2-oxo-2H-chromene-3-carboxamide]",0.115,,> 10,> 10,> 10
"CN(C)CCCNC(=S)NC(=O)c1cc2ccccc2oc1=O [e20, N-((3-(dimethylamino)propyl)carbamothioyl)-2-oxo-2H-chromene-3-carboxamide]",0.182,100,> 10,> 10,> 10
"O=C(NC(=S)NN1CCOCC1)c1cc2ccccc2oc1=O [e16, N-(morpholinocarbamothioyl)-2-oxo-2H-chromene-3-carboxamide]",2.59,180 to 182,> 10,> 10,> 10
"O=C(NC(=S)N1CCCCC1)c1cc2ccccc2oc1=O [e7, 2-oxo-N-(piperidine-1-carbonothioyl)-2H-chromene-3-carboxamide]",0.202,175 to 176,> 10,> 10,> 10
"O=C(NC(=S)N1CCCC1)c1cc2ccccc2oc1=O [e6, 2-oxo-N-(pyrrolidine-1-carbonothioyl)-2H-chromene-3-carboxamide]",0.298,162 to 163,> 10,> 10,> 10
"O=C(NC(=S)NCCN1CCNCC1)c1cc2ccccc2oc1=O [e19, 2-oxo-N-((2-(piperazin-1-yl)ethyl)carbamothioyl)-2H-chromene-3-carboxamide]",,163 to 165,,,
"O=C(NC(=S)NCCC1=CCCCC1)c1cc2ccccc2oc1=O [e13, N-((2-(cyclohex-1-en-1-yl)ethyl)carbamothioyl)-2-oxo-2H-chromene-3-carboxamide]",0.18,142 to 143,> 10,> 10,> 10
"CN1CCN(C(=S)NC(=O)c2cc3ccccc3oc2=O)CC1 [e8, N-(4-methylpiperazine-1-carbonothioyl)-2-oxo-2H-chromene-3-carboxamide]",0.128,162 to 164,> 10,> 10,> 10
"CN1CCN(NC(=S)NC(=O)c2cc3ccccc3oc2=O)CC1 [e17, N-((4-methylpiperazin-1-yl)carbamothioyl)-2-oxo-2H-chromene-3-carboxamide]",0.259,204,> 10,> 10,> 10
"O=C(NC(=S)NN1CCCCC1)c1cc2ccccc2oc1=O [e18, 2-oxo-N-(piperidin-1-ylcarbamothioyl)-2H-chromene-3-carboxamide]",0.387,206,> 10,> 10,> 10
"O=C(NC(=S)NC1Cc2ccccc2C1)c1cc2ccccc2oc1=O [e10, N-((2,3-dihydro-1H-inden-2-yl)carbamothioyl)-2-oxo-2H-chromene-3-carboxamide]",0.13,,> 10,> 10,> 10
"CC(C)N(C(=S)NC(=O)c1cc2ccccc2oc1=O)C(C)C [e4, N-(diisopropylcarbamothioyl)-2-oxo-2H-chromene-3-carboxamide]",0.351,150 to 151,> 10,> 10,> 10
"O=C(NC(=S)N1CCOCC1)c1cc2ccccc2oc1=O [e9, N-(morpholine-4-carbonothioyl)-2-oxo-2H-chromene-3-carboxamide]",0.136,123 to 125,> 10,> 10,> 10
"CCN(CC)C(=S)NC(=O)c1cc2ccccc2oc1=O [e3, N-(diethylcarbamothioyl)-2-oxo-2H-chromene-3-carboxamide]",0.376,143,> 10,> 10,> 10
"CNC(=S)NC(=O)c1cc2ccccc2oc1=O [e1, N-(methylcarbamothioyl)-2-oxo-2H-chromene-3-carboxamide]",0.323,146 to 148,> 10,> 10,> 10
"CCCNC(=S)NC(=O)c1cc2ccccc2oc1=O [e2, 2-oxo-N-(propylcarbamothioyl)-2H-chromene-3-carboxamide]",0.286,123,> 10,> 10,> 10
"O=C(NC(=S)NCc1ccc2c(c1)OCO2)c1cc2ccccc2oc1=O [e15, N-((benzo[d][1,3]dioxol-5-ylmethyl)carbamothioyl)-2-oxo-2H-chromene-3-carboxamide]",0.184,188 to 190,> 10,> 10,> 10
